Measured values taken from patent publication US4720546A (priority 1984, dated 1988).
≈ marks a conversion by molar mass, not a printed value.

Columns and labels:
[1] = in vivo; conditions: mouse, po
[2] = test system: Candida albicans; experiment: fungistatic activity test in Casiton agar test tubes (MIC), Candida albicans; format: cell-based; conditions: 48 h, read-out: MIC values, C. albicans
[3] = test system: Histoplasma capsulatum; experiment: microbe, parasite or virus in culture; format: cell-based; conditions: 168 h, read-out: MIC values, H. capsulatum

| SMILES | LD50 [1] | MIC [2] | MIC [3] |
| --- | --- | --- | --- |
| Clc1ccc([C@@]2(Cn3ccnc3)OC[C@H](COc3ccc(N4CCSCC4)cc3)O2)c(Cl)c1 (relative stereo) [CH CH 0, cis-4-[4-[[2-(2,4-dichlorophenyl)-2-[(imidazol-1-yl)methyl]-1,3-dioxolan-4-yl]methoxy]phenyl]tetrahydro-4H-1,4-thiazine] | ~1000 mg/kg | 1 to 100 µg/mL (≈ 1.97 to 197 µM) | 10 µg/mL (≈ 19.7 µM) |
| [O-][S+]1CCN(c2ccc(OC[C@H]3CO[C@](Cn4ccnc4)(c4ccc(Cl)cc4Cl)O3)cc2)CC1 (relative stereo) [CH CH 1, cis-4-[4-[[2-(2,4-dichlorophenyl)-2-[(imidazol-1-yl)methyl]-1,3-dioxolan-4-yl]methoxy]-phenyl]-tetrahydro-4H-1,4-thiazine 1-oxide] | ~1000 mg/kg | 1 to 100 µg/mL (≈ 1.91 to 191 µM) | 10 µg/mL (≈ 19.1 µM) |
| O=S1(=O)CCN(c2ccc(OC[C@H]3CO[C@](Cn4ccnc4)(c4ccc(Cl)cc4Cl)O3)cc2)CC1 (relative stereo) [CH CH 2, cis-4-[4-[[2-(2,4-dichlorophenyl)-2-[(imidazol-1-yl)methyl]-1,3-dioxolan-4-yl]methoxy]phenyl]-tetrahydro-4H-1,4-thiazine 1,1-dioxide] | ≥ 4000 mg/kg | 0.1 to 1 µg/mL (≈ 0.186 to 1.86 µM) | 1 µg/mL (≈ 1.86 µM) |
| Clc1ccc([C@@]2(Cn3cncn3)OC[C@H](COc3ccc(N4CCSCC4)cc3)O2)c(Cl)c1 (relative stereo) [CH N 0, cis-4-[4-[[2-(2,4-dichlorophenyl)-2-[(1H-1,2,4-triazol-1-yl)methyl]-1,3-dioxolan-4-yl]methoxy]phenyl]-tetrahydro-4H-1,4-thiazine] | ≥ 5000 mg/kg | 0.1 to 1 µg/mL (≈ 0.197 to 1.97 µM) | 10 µg/mL (≈ 19.7 µM) |
| [O-][S+]1CCN(c2ccc(OC[C@H]3CO[C@](Cn4cncn4)(c4ccc(Cl)cc4Cl)O3)cc2)CC1 (relative stereo) [CH N 1, cis-4-[4-[[2-(2,4-dichlorophenyl)-2-[(1H-1,2,4-triazol-1-yl)methyl]-1,3-dioxolan-4-yl]methoxy]phenyl]-tetrahydro-4H-1,4-thiazine 1-oxide] | ~4000 mg/kg | 1 to 100 µg/mL (≈ 1.91 to 191 µM) | 100 µg/mL (≈ 191 µM) |
| O=S1(=O)CCN(c2ccc(OC[C@H]3CO[C@](Cn4cncn4)(c4ccc(Cl)cc4Cl)O3)cc2)CC1 (relative stereo) [CH N 2, cis-4-[4-[[2-(2,4-dichlorophenyl)-2-[(1H-1,2,4-triazol-1-yl)methyl]-1,3-dioxolan-4-yl]methoxy]phenyl]-tetrahydro-4H-1,4-thiazine 1,1-dioxide] | ≥ 5000 mg/kg | 0.1 to 10 µg/mL (≈ 0.185 to 18.5 µM) | 1 µg/mL (≈ 1.85 µM) |
| O=S1(=O)CCN(c2ccc(OC[C@H]3CO[C@](Cn4cnnc4)(c4ccc(Cl)cc4Cl)O3)cc2)CC1 (relative stereo) [N CH 2, cis-4-[4-[[2-(2,4-dichlorophenyl)-2-[(4H-1,2,4-triazol-4-yl)methyl]-1,3-dioxolan--4-yl]methoxy]phenyl]-tetrahydro-4H-1,4-thiazine 1,1-dioxide] | ≥ 4000 mg/kg | 0.1 to 10 µg/mL (≈ 0.185 to 18.5 µM) | > 100 µg/mL |
